Measurements reported in US20120010205A1, “NOVEL QUINOLINE ESTERS USEFUL FOR TREATING SKIN DISORDERS” (Wyeth LLC, priority 2010, published 2012).

Key:
ABCG1 [1] = experiment: Gene regulation by LXR: ABCG1, human foreskin fibroblasts (serum-free); type: cell-based; settings: Fibroblast
ABCG1 [2] = experiment: Gene regulation by LXR: ABCG1, KERTr (serum-free); type: cell-based
hLXRa = target: T1, hLXRa (Homo sapiens, UniProt Q13133); experiment: hLXRa binding
T1 sequence (Q13133 1-447): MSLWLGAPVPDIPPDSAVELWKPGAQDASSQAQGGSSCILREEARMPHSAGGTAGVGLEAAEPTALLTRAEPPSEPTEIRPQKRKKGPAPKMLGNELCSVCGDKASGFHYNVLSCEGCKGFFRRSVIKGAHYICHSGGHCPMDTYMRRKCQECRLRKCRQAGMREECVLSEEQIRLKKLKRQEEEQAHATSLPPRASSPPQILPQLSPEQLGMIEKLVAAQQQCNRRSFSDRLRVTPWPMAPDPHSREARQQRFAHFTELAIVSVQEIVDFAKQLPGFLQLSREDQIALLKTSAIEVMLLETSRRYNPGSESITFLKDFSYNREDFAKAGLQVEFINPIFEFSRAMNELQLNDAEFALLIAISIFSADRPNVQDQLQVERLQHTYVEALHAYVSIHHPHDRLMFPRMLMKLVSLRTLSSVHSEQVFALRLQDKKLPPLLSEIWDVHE

human LXRβ = target: T2, human LXRβ (Homo sapiens, UniProt P55055); experiment: Ligand-binding test procedure for human LXRβ (3H T0901317 tracer, flash plates); settings: read-out: hLXRb binding IC50
T2 construct: made in house; host or cells: E. coli
T2 sequence (P55055 1-460): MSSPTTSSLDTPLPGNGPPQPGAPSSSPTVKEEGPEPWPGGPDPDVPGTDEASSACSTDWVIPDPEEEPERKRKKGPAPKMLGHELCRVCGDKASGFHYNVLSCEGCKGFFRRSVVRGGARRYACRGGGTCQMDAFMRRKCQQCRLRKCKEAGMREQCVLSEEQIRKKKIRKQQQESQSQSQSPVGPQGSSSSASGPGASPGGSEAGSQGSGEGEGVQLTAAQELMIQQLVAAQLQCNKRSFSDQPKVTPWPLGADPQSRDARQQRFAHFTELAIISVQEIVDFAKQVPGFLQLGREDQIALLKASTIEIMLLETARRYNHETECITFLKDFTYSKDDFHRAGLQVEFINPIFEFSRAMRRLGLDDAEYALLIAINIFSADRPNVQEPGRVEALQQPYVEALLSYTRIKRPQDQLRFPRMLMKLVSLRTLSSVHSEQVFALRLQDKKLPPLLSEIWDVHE
Method: LIGAND-BINDING TEST PROCEDURE FOR HUMAN LXRβ.
Buffer: 100 mM KCl, 100 mM TRIS (pH 7.4 at +4° C.), 8.6% glycerol, 0.1 mM PMSF*, 2 mM MTG*, 0.2% CHAPS (* not used in wash buffer)
Receptor source: E. coli extracted from cells expressing biotinylated hLXRβ. Extract was made in a similar buffer as above, but with 50 mM TRIS.
Washed streptavidin and coated flash plates with wash buffer. Diluted receptor extract to give Bmax˜4000 cpm and add to the wells. Wrapped the plates in aluminum foil and stored them at +4° C. overnight.
Made a dilution series in DMSO of the test ligands. Made a 5 nM solution of the radioactive tracer in buffer. Mixed 250 μL diluted tracer with 5 μL of the test ligand from each concentration of the dilution series. Washed the receptor-coated flash plates. Added 200 μL per well of the ligand/radiolabel mixture to the receptor-coated flash plates. Wrapped the plates in aluminum foil and incubate at +4° C. over night.
Aspirated wells, and washed the flashed plates. Sealed the plate. Measured the remaining radioactivity in the plate.

| SMILES | EC50 (ABCG1 [1]) | EC50 (ABCG1 [2]) | IC50 (hLXRa) | IC50 (human LXRβ) |
| --- | --- | --- | --- | --- |
| CCS(=O)(=O)c1cccc(C(=O)Oc2cccc(-c3c(C(C)C)cnc4c(C(F)(F)F)cccc34)c2)c1 [Example 6, 3-[3-isopropyl-8-(trifluoromethyl)quinolin-4-yl]phenyl-3-(ethylsulfonyl)benzoate] | 0.037 µM | 0.00148 µM | 0.0163 µM | 0.004 µM |
| CS(=O)(=O)c1cccc(C(=O)Oc2cccc(-c3c(C#N)cnc4c(C(F)(F)F)cccc34)c2)c1 [Example 24, 3-[3-cyano-8-(trifluoromethyl)quinolin-4-yl]phenyl 3-(methylsulfonyl)benzoate] | – | – | 0.09 µM | 0.033 µM |
| Cc1ccc(S(C)(=O)=O)cc1C(=O)Oc1cccc(-c2c(C(C)C)cnc3c(Cl)cccc23)c1 [Example 2, 3-(8-chloro-3-isopropyiquinolin-4-yl)phenyl 2-methyl-5-(methylsulfonyl)benzoate] | 0.033 µM | 0.00146 µM | 0.0117 µM | 0.0037 µM |
| CS(=O)(=O)c1cccc(C(=O)Oc2cccc(-c3ccnc4c(C(F)(F)F)cccc34)c2)c1 [Example 21, 3-[8-(trifluoromethyl)quinolin-4-yl]phenyl 3-(methylsulfonyl)benzoate] | 0.634 µM | 0.384 µM | 0.12 µM | 0.02 µM |
| CCCc1cnc2c(C(F)(F)F)cccc2c1-c1cccc(OC(=O)c2cccc(S(C)(=O)=O)c2)c1 [Example 20, 3-[3-propyl-8-(trifluoromethyl)quinolin-4-yl]phenyl 3-(methylsulfonyl)benzoate] | 0.011 µM | 0.00449 µM | 0.0029 µM | 0.002 µM |
| Cc1ccc(S(=O)(=O)N2CCOCC2)cc1C(=O)Oc1cccc(-c2c(C(C)C)cnc3c(Cl)cccc23)c1 [Example 38, 3-(8-chloro-3-isopropylquinolin-4-yl)phenyl 2-methyl-5-(morpholin-4-ylsulfonyl)benzoate] | 0.044 µM | 0.00062 µM | 0.664 µM | 0.506 µM |
| CC(C)c1cnc2c(C(F)(F)F)cccc2c1-c1cccc(OC(=O)c2cc(S(C)(=O)=O)ccc2Cl)c1 [Example 14, 3-[3-isopropyl-8-(trifluoromethyl)quinolin-4-yl]phenyl-2-chloro-5-(methylsulfonyl)benzoate] | – | – | 0.017 µM | 0.0041 µM |
| CC(C)c1cnc2c(Cl)cccc2c1-c1cccc(OC(=O)c2cc(S(C)(=O)=O)ccc2Cl)c1 [Example 13, 3-(8-chloro-3-isopropylquinolin-4-yl)phenyl 2-chloro-5-(methylsulfonyl)benzoate] | – | – | 0.009 µM | 0.0034 µM |
| CC(C)c1cnc2c(C(F)(F)F)cccc2c1-c1cccc(OC(=O)c2ccccc2S(C)(=O)=O)c1 [Example 9, 3-[3-isopropyl-8-(trifluoromethyl)quinolin-4-yl]phenyl 2-(methylsulfonyl)benzoate] | – | – | 0.256 µM | 0.112 µM |
| CC(C)c1cnc2c(Cl)cccc2c1-c1cccc(OC(=O)c2cccc(S(C)(=O)=O)c2)c1 [Example 16, 3-[8-chloro-3-(1-methylethyl)quinolin-4-yl]phenyl 3-(methylsulfonyl)benzoate] | – | – | 0.0044 µM | 0.0022 µM |
| CC(C)c1cnc2c(Cl)cccc2c1-c1cccc(OC(=O)c2ccccc2S(C)(=O)=O)c1 [Example 4, 3-(8-chloro-3-isopropylquinolin-4-yl)phenyl 2-(methylsulfonyl)benzoate] | – | – | > 1 µM | > 1 µM |
| Cc1cnc2c(Cl)cccc2c1-c1cccc(OC(=O)c2cccc(S(C)(=O)=O)c2)c1 [Example 17, 3-(8-chloro-3-methylquinolin-4-yl)phenyl 3-(methylsulfonyl) benzoate] | – | – | 0.017 µM | 0.0037 µM |
| Cc1cnc2c(C(F)(F)F)cccc2c1-c1cccc(C(=O)Oc2cccc(S(C)(=O)=O)c2)c1 [Example 12] | – | – | 0.544 µM | 0.154 µM |
| CS(=O)(=O)c1cccc(C(=O)Oc2ccc(Cl)c(-c3ccnc4c(C(F)(F)F)cccc34)c2)c1 [Example 18, 4-chloro-3-[8-(trifluoromethyl)quinolin-4-yl]phenyl-3-(methylsulfonyl)benzoate] | – | – | 0.122 µM | 0.0138 µM |
